Reference: patent US20220106282A1, “TREATMENT FOR BREAST CANCER, INCLUDING TRIPLE-NEGATIVE BREAST CANCER” (priority 2018, published 2022)
Values joined by “and” are separate entries in the source; they are usually repeats but may differ in a detail not shown here. Equal entries are not always repeated. Marks after values point to notes of the source that are not given here.

Experiments:
[1] = test system: breast tumors in female FVB mice transgenic for HER-2/neu; experiment: Antitumor activity on model of multiple breast tumors in HER-2/neu transgenic mice
Procedure: Two adenocarcinoma subtypes can be differentiated, in particular ER+, PR−, and ER−, PR− [2].
The study was carried out in female FVB mice transgenic for HER-2/neu by conventional category; the strain was obtained from the mouse bank Charles River Laboratories (Italy). At the beginning of the study the animals were 21-41 weeks old having weight of 25 to 30 g.
The study medicament was administered i.g. using a metal atraumatic gavage (with the procedure corresponds to the oral route of administration in clinical settings). The medicament was administered in a single daily dose (20 mg/kg of body weight) and 5-fold daily dose of 100 mg/kg of body weight. Ex tempore solutions of the medicament for administration were prepared in olive oil (refined olive oil supplemented with unrefined extra virgin olive oil available under Global Village “Clasico” trademark, lot L:183351116, expiry date 26 Apr. 2020, BAIEO, Spain). The administered volume was 0.1 ml per 10 g of a mouse body weight (0.2 ml of a ready-to-use formulation for a mouse of 20 g). The medicament administration was started 24 hours after the randomization. The duration of the administration course was 27-28 days.
This dose corresponds to a human daily dose of 20 mg/kg.
The control groups were given the olive oil (placebo).
The evaluation criteria included the clinical observation data, animals body weights, time of death (if applicable), tumor growth over time, pathomorphological examination data (verification of a neoplasm during autopsy, assessment of toxic effects by macroscopic presentation of changes in the internal organs).
The animals body weights were recorded before the first administration of the medicaments and then twice per week using a verified high-speed electronic laboratory balance Ohaus Scout Pro (USA) with a maximum load of 2000 g and a measurement step of 0.1 g.
Macroscopically detectable tumor nodes were measured in animals once per week during weighing process. Two linear dimensions including the largest one and the largest rectangular to the former were recorded for each of the nodes. The largest dimension was taken as a length (a) and the second dimension as a width (b) of the tumor nodes. A tumor volume was calculated by the expression as follows: […]
The efficacy of the therapy was assessed by recording a change in the average tumor volume, tumor growth inhibition (TGI), and the average total tumor volumes and its change over time in each of the mice.
The percent of tumor growth inhibition was calculated by the expression as follows:
TGI=(Vctrl−Vexp)/Vctrl×100(%),
where Vctrl is an average tumor volume in a control group, and Vexp is an average tumor volume in an experimental group.
The primary data from individual forms were transferred to Microsoft Excel 2007 books. The group arithmetic average (M) and standard deviation (m) were calculated for all quantitative data. The statistical analysis was performed using the statistical software GraphPad Prism 6.0. The differences between the groups were assessed using ANOVA regression analysis and the Fisher's exact test.

[2] = test system: FVB mice transgenic for HER-2/neu; experiment: Acute oral toxicity, OECD 423 test; type: in vivo
[3] = test system: human MCF-7 cell culture (breast adenocarcinoma); experiment: Proliferation of MCF-7 cells under sulfatase inhibition; type: cell-based; details: concentration of 20 μg/ml
Procedure: The cells were seeded on Carrel vials at 50×10^4 cells per flask. To study the proliferative activity of the cells under conditions of sulfatase inhibition, 24 hours after seeding the culture medium […], and then these tumor cell lines were incubated for various periods of time (24 to 72 hrs). The inhibitor was dissolved in DMSO. […] To exclude the cytotoxic effect of DMSO, a control sample comprising DMSO without sulfatase inhibitor was prepared. To exclude nonspecific detrimental effects of the compounds, normal human skin fibroblasts were used. Then the cells were detached with the versene-trypsin solution (Biolot), plated onto Carrel vials containing a fresh complete culture medium. The cells were counted when untreated control cells reached the maximum cell density per unit of surface area of a culture flask (monolayer), and their number was set as 100%. The proliferative activity of all of the studied cell cultures exposed to sulfatase inhibitors was determined in triplicate.

[4] = 100 mg/kg i.g. daily, Day 27 vs Day −1

## C[C@H]1Oc2cc(OS(N)(=O)=O)ccc2[C@H]2CC[C@]3(C)C(=O)CCC[C@H]3[C@H]21 [compound of formula (1), 3-O-sulphamoyloxy-7β-methyl-D-homo-6-oxa-8α-estra-1,3,5(10)-trien-17a-one]
[1]; 100 mg/kg i.g. daily, Day 20
  TGI (average total tumor volume): 10%
  TGI (average tumor volume): 17%
[1]; 100 mg/kg i.g. daily, Day 27
  Average total volume of tumors in mice (M): 1.74 cm^3
  Average volume of tumors present at the beginning of the experiment (M): 0.7 cm^3
  Relative change of the average total volume of tumors to that of Day −1 (M): 198** %
  TGI (average total tumor volume): 15%
  TGI (average tumor volume): 21%
[1]; [4]
  % of change from baseline (average total tumor volume): 102%
  % of change to the initial value (average tumor volume): 106%
[1]; 100 mg/kg i.g. daily, Day −1
  Average total volume of tumors in mice (M): 0.86 cm^3
  Average volume of tumors present at the beginning of the experiment (M): 0.34 cm^3
  Relative change of the average total volume of tumors to that of Day −1 (M): 0%
  TGI (average total tumor volume): −105%
  TGI (average tumor volume): −89%
[1]; 100 mg/kg i.g. daily, end of observation
  Average volume of new tumors, % less than that of the control group: 39%
[1]; 100 mg/kg i.g. daily, end of study
  Absolute number of new tumors: 25
[1]; 100 mg/kg i.g. daily, end of study, volume not increased by more than 20%
  Frequency of tumor stabilizations: 16%
[1]; 100 mg/kg i.g. daily, listed as medicament
  Average volume of new tumors at the end of the observation period (M): 0.20±0.05 cm^3 and 0.20 cm^3
[1]; FVB mice transgenic for HER-2/neu with breast tumors
  Tumor growth inhibition compared to Tamoxifen: inhibits tumor growth to the same extent as clinically approved Tamoxifen
[1]; end of the experiment, 27-28 days of administration
  Signs of toxic damage to the internal organs at autopsy: No specific signs of toxic damage to the internal organs were detected
[2]; 300 mg/kg single i.g. dose
  Lethal effects (dead/total): 0/6
[2]; 300 mg/kg single i.g. dose, Day 1 (before administration)
  Body weight, average: 28.7 g
[2]; 300 mg/kg single i.g. dose, Day 1 (before administration), listed as medicament
  Body weight, individual mice: 26.4 and 28.2 and 30.0 and 29.0 (2×) and 29.5
[2]; 300 mg/kg single i.g. dose, Day 2
  Body weight, average: 28.8 g
[2]; 300 mg/kg single i.g. dose, Day 2, listed as medicament, in g (unit assumed)
  Body weight, individual mice: 26.4 and 28.0 and 30.8 and 29.6 and 28.6 and 29.2
[2]; 300 mg/kg single i.g. dose, Day 7
  Body weight, average: 29.6 g
[2]; 300 mg/kg single i.g. dose, Day 7, listed as medicament, in g (unit assumed)
  Body weight, individual mice: 27.0 and 28.4 and 30.8 and 31.2 and 30.4 and 29.6
[2]; 300 mg/kg single i.g. dose, Day 14
  Body weight, average: 29.6 g
[2]; 300 mg/kg single i.g. dose, Day 14, listed as medicament, in g (unit assumed)
  Body weight, individual mice: 27.2 and 28.6 and 30.3 and 31.0 and 30.6 and 29.8
[2]; 300 mg/kg single i.g. dose, listed as medicament
  Lethal effects (dead/total): no animals deaths
[2]; 300 mg/kg, Day 2
  Average body weight, % from baseline: (0) %
[2]; 300 mg/kg, Day 7
  Average body weight, % from baseline: (3) %
[2]; 300 mg/kg, Day 14
  Average body weight, % from baseline: (3) %
[2]; 300 mg/kg, entire observation period
  Visual signs of intoxication: None of the animals exhibited visual signs of intoxication
[2]; 2000 mg/kg
  Clinical signs of intoxication: No clinical signs of intoxication were observed
[2]; 2000 mg/kg i.g.
  Lethal effects (dead/total): 0/6
[2]; 2000 mg/kg i.g., Day 2
  Body weight, average: 26.3 g
[2]; 2000 mg/kg i.g., Day 7
  Body weight, average: 25.9 g
[2]; 2000 mg/kg i.g., Day 14
  Body weight, average: 27.2 g
[2]; 2000 mg/kg, Day 2
  Average body weight, % from baseline: (−3) %
[2]; 2000 mg/kg, Day 7
  Average body weight, % from baseline: (−4) %
  Decrease of body weight from the initial weight: 4%
[2]; 2000 mg/kg, Day 14
  Average body weight, % from baseline: (0) %
[2]; Day 15
  Macroscopic changes of the internal organs at autopsy: no changes of the internal organs were detected
[3]
  Proliferation of MCF-7 tumor cells: completely blocks the proliferation
